Test results taken from paper PMC2033546, “Effects of somatostatin analogue RC-160 and bombesin/gastrin-releasing peptide antagonists on the growth of human small-cell and non-small-cell lung carcinomas in nude mice” (British Journal of Cancer, 1994).
Where no end group is shown, it is not given here.

Key:
[1] = tested on: Bombesin/GRP receptors in membranes of SCLC H69 tumours; test: Bombesin/GRP receptor binding on H69 tumour membranes after in vivo treatment; parameters: species or system human; conditions: after in vivo treatment
Text: (§1) Br. J. Cancer (1994). 70, 886 892 ? Macmillan Press Ltd.. […] Bombesin GRP antagonists. […] Lung carcinoma is the leading cause of cancer-related deaths in the western world. It is estimated that in 1992 there were approximately 168,000 new cases of lung cancer in the US and that about 146,000 deaths occurred from this disease (Boring et al., 1992). […] The growth factors such as bombesin/gastrin-releasing pep- tide (GRP), epidermal growth factor, (EGF), transforming growth factor a (TGF-x) and insulin-like growth factor I(IGF-I) appear to play a role in the proliferation and pro- gression of lung cancer (Cuttitta et al., 1985; Veale et al., 1987; Minuto et al., 1988; Siegfried & Owens, 1988; Macaulay et al., 1990; Tateishi et al., 1991; Damstrup et al., 1992; Sethi & Rozengurt, 1992; Rabiasz et al., 1992; Moody & Cuttitta, 1993). […] Tpi is 2,3,4,9-tetrahydro- Correspondence: A.V. Schally (151). VA Medical Center, 1601 Per- dido Street. New Orleans, LA 70146. USA. Received 1 March 1994; and in revised form 5 July 1994. Br. J. Cancer (1994), 70, 886-892 C Macmillan Press Ltd., 1994 PEPTIDE ANALOGUES IN LUNG CANCER 8U7 lH-pyrido [3,4bjindol-3-carboxylic acid, a conformationally constrained secondary amine derivate of tryptophan and Tac is thiazolidine-4-carboxylic acid. […] Animals Male athymic NCr nulmu nude mice, approximately 6 weeks old on arrival, were obtained from the NCI (Bethesda, MD, USA) and maintained under pathogen-limited conditions. Cell lines The human SCLC cell line NCI-H69, was obtained from the American Type Cell Culture (ATCC), Rockville, MD, USA and the non-SCLC cell line NCI-H157, from Dr H. Oie, NCI-Navy Medical Oncology Branch, Bethesda, MD, USA. These cell lines were cultured in RPMI-1640 medium supple- mented with 4 mM L-glutamine, 50 units ml-I penicilln G sodium, SOigml-' streptomycin sulphate, 0.125pgml-' amphotericin B and 10% fetal bovine serum at 3TC in a humidified 95% air/5% carbon dioxide atmosphere. CeLs were passaged weekly and routinely monitored for myco- plasma contamination using a detection kit (Boehringer- Mannheim, Mannheim, Germany). All culture media com- ponents were purchased from Gibco (Grand Island, NY, USA). Receptor assays Preparation of membranes for receptor studies was described previously (Halmos et al., 1993). Iodinated EGF and IGF-I were purchased from Amersham (Arlington Heights, IL, USA). Radioiodination of other peptides and receptor bind- ing of EGF, IGF-I, somatostatin and bombesin/GRP were performed as previously described (Srkalovic et al., 1989; Szepeshazi et al., 1992). Complete displacement assays on tumour membranes were done only once because of the shortage of tumour material. The LIGAND PC computerised curve-fitting programme of Munson and Rodbard (1980) was used to determine the types of receptor binding, dissociation constant (Kd) values, and the maximal binding capacity (BDj) of receptors. […] The number of mitotic and apoptotic cells per 1,000 cells was determined, and the percentage area of necrosis in tumour sections was examined using the point-counting method (Szepeshazi et al., 1991, 1992), in which the crossing points of an ocular net that coincide with necrosis in various sections are counted. Radiommunoassays Serum levels of growth hormone were determined by double- antibody radioimmunoassay (RIA) using materials supplied by the National Hormone and Pituitary Program of the National Institute of Diabetes and Digestive and Kidney Diseases (NIDDK).

[2] = tested on: EGF receptors in membranes of SCLC H69 tumours; test: EGF receptor binding on H69 tumour membranes after in vivo treatment; parameters: species or system human; conditions: Table IV, Experiment I (SCLC-H69); tumour membranes after in vivo treatment; control 278; ten-point displacement in triplicate tubes, done once
Text: as §1

[3] = tested on: IGF-I receptors in membranes of SCLC H69 tumours; test: IGF-I receptor binding on H69 tumour membranes after in vivo treatment; parameters: species or system human; conditions: Table IV, Experiment I (SCLC-H69), control 294, done once
Text: as §1, with “USA).” for “USA). Receptor assays Preparation of membranes for receptor studies was described previously (Halmos et al., 1993). Iodinated EGF and IGF-I were purchased from Amersham (Arlington Heights, IL, USA). Radioiodination of other peptides and receptor bind- ing of EGF, IGF-I, somatostatin and bombesin/GRP were performed as previously described (Srkalovic et al., 1989; Szepeshazi et al., 1992). Complete displacement assays on tumour membranes were done only once because of the shortage of tumour material. The LIGAND PC computerised curve-fitting programme of Munson and Rodbard (1980) was used to determine the types of receptor binding, dissociation constant (Kd) values, and the maximal binding capacity (BDj) of receptors.”

SCLC H69 tumours = test: Histology (mitosis, apoptosis, necrosis) of SCLC H69 tumours; type: in vivo, human (xenograft in nude mice)
Text: (§2) Br. J. Cancer (1994). 70, 886 892 ? Macmillan Press Ltd.. […] Bombesin GRP antagonists. […] Lung carcinoma is the leading cause of cancer-related deaths in the western world. It is estimated that in 1992 there were approximately 168,000 new cases of lung cancer in the US and that about 146,000 deaths occurred from this disease (Boring et al., 1992). […] The growth factors such as bombesin/gastrin-releasing pep- tide (GRP), epidermal growth factor, (EGF), transforming growth factor a (TGF-x) and insulin-like growth factor I(IGF-I) appear to play a role in the proliferation and pro- gression of lung cancer (Cuttitta et al., 1985; Veale et al., 1987; Minuto et al., 1988; Siegfried & Owens, 1988; Macaulay et al., 1990; Tateishi et al., 1991; Damstrup et al., 1992; Sethi & Rozengurt, 1992; Rabiasz et al., 1992; Moody & Cuttitta, 1993). […] Tpi is 2,3,4,9-tetrahydro- Correspondence: A.V. Schally (151). VA Medical Center, 1601 Per- dido Street. New Orleans, LA 70146. USA. Received 1 March 1994; and in revised form 5 July 1994. Br. J. Cancer (1994), 70, 886-892 C Macmillan Press Ltd., 1994 PEPTIDE ANALOGUES IN LUNG CANCER 8U7 lH-pyrido [3,4bjindol-3-carboxylic acid, a conformationally constrained secondary amine derivate of tryptophan and Tac is thiazolidine-4-carboxylic acid. […] Animals Male athymic NCr nulmu nude mice, approximately 6 weeks old on arrival, were obtained from the NCI (Bethesda, MD, USA) and maintained under pathogen-limited conditions. Cell lines The human SCLC cell line NCI-H69, was obtained from the American Type Cell Culture (ATCC), Rockville, MD, USA and the non-SCLC cell line NCI-H157, from Dr H. Oie, NCI-Navy Medical Oncology Branch, Bethesda, MD, USA. These cell lines were cultured in RPMI-1640 medium supple- mented with 4 mM L-glutamine, 50 units ml-I penicilln G sodium, SOigml-' streptomycin sulphate, 0.125pgml-' amphotericin B and 10% fetal bovine serum at 3TC in a humidified 95% air/5% carbon dioxide atmosphere. CeLs were passaged weekly and routinely monitored for myco- plasma contamination using a detection kit (Boehringer- Mannheim, Mannheim, Germany). All culture media com- ponents were purchased from Gibco (Grand Island, NY, USA). Receptor assays Preparation of membranes for receptor studies was described previously (Halmos et al., 1993). Iodinated EGF and IGF-I were purchased from Amersham (Arlington Heights, IL, USA). Radioiodination of other peptides and receptor bind- ing of EGF, IGF-I, somatostatin and bombesin/GRP were performed as previously described (Srkalovic et al., 1989; Szepeshazi et al., 1992). Complete displacement assays on tumour membranes were done only once because of the shortage of tumour material. The LIGAND PC computerised curve-fitting programme of Munson and Rodbard (1980) was used to determine the types of receptor binding, dissociation constant (Kd) values, and the maximal binding capacity (BDj) of receptors. In order to determine the specificity of the binding sites for radiolabelled EGF, IGF-I, somatostatin and bombesin to lung cancer membranes, various structuraly related and unrelated peptides were tested for their ability to inhibit the binding of the tracers. Histological procedure The histological procedures were the same as described previously (Szepeshazi et al., 1991, 1992). The number of mitotic and apoptotic cells per 1,000 cells was determined, and the percentage area of necrosis in tumour sections was examined using the point-counting method (Szepeshazi et al., 1991, 1992), in which the crossing points of an ocular net that coincide with necrosis in various sections are counted. Radiommunoassays Serum levels of growth hormone were determined by double- antibody radioimmunoassay (RIA) using materials supplied by the National Hormone and Pituitary Program of the National Institute of Diabetes and Digestive and Kidney Diseases (NIDDK).

[4] = tested on: Somatostatin receptors in membranes of SCLC H69 tumours; test: Somatostatin receptor binding on H69 tumour membranes after in vivo treatment; parameters: species or system human; conditions: Table IV, Experiment I (SCLC-H69); tumour membranes after in vivo treatment; control 450; done once
Text: as §1

[5] = tested on: human SCLC cell line NCI-H69; test: Growth of H69 SCLC xenografts in nude mice; type: in vivo, human (xenograft in male athymic nude mice)
Text: as §2

EGF receptors = conditions: various cancer lines and cancer specimens; ref Liebow et al., 1992; cited from earlier work
Text: Br. J. Cancer (1994). 70, 886 892 ? Macmillan Press Ltd..

[6] = H69 SCLC xenografts, as compared with control group, RC-160 100 µg, RC-3950-II 20 µg per animal per day s.c. peritumorally, 5 weeks

Row | Substance | Concentration of receptors for bombesin/GRP on H69 tumours (in words) [1] | EGF maximal binding capacity (Bmax) [2] [fmol mg' protein] | IGF-I maximal binding capacity (Bmax) [3] [fmol mg' protein] | Extent of necrosis (in words) (SCLC H69 tumours; SCLC H69 tumours, point-counting method, differences from control not significant statistically) | Apoptotic index (SCLC H69 tumours; Table II, Experiment I (SCLC H69), apoptotic cells per 1,000 cells, control 35.4 ? 2.6, means ? s.e.) | Mitotic index (SCLC H69 tumours; Table II, Experiment I (SCLC H69), mitotic cells per 1,000 cells, control 37.9 ? 2.9, means ? s.e., *P < 0.05 vs control) | Somatostatin maximal binding capacity (Bmax) [4] [fmol mg-'protein] | Reduction in tumour volumes [5, 6] | Reduction in tumour weights [5, 6] | Tumour weight ([5]; Table I, Experiment I (SCLC-H69), 5 weeks s.c. peritumoral, RC-160 100 µg/day, antagonists 20 µg/day per animal, control 0.27 ? 0.19, means ? s.d., *P<0.05 vs control) | Tumour doubling time ([5]; Table I, Experiment I (SCLC-H69), 5 weeks, RC-160 100 µg/day, antagonists 20 µg/day per animal s.c., control 7.5) [days] | Growth of H69 SCLC tumours (in words) ([5]; s.c. peritumorally, RC-160 100 µg, bombesin/GRP antagonists 20 µg per animal per day, 5 weeks) | Effect on phosphorylation of EGF receptors (in words) (EGF receptors)
1 | [D-Phe6, Leu'3*(CH,N)Tac'1 bombesin (6-14) [RC-3950-II] | reduced to non-detectable levels | 93 | 226 | less exten- sive | 41.5 | 49.8 | 390 | more than 80% | more than 80% | 0.03 0.03* g | 16.8 | greatest inhibitory effect | –
2 | gastrin-releasing peptide (VPLPAGGGTVLTKMYPRGNHWAVGHLM; ends and bridges not checked; UniProt P07492 24-50, looked up) [GRP] | – | – | – | – | – | – | – | – | – | – | – | – | enhance the phosphorylation of EGF receptors
